Data from patent US20060069132A1, “Azolecarboxamide herbicides” (priority 2004, published 2006).

Legend:
[1] = test system: giant foxtail; assay: Test A pre-/postemergence herbicide test; format: in vivo, Setaria faberi
Procedure, shortened: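 Pre: seeded sandy loam, directed soil spray, compound in non-phytotoxic solvent + surfactant. Post: 1–2-leaf plants (2–10 cm), sprayed to runoff. Greenhouse ~10 d; visual injury vs untreated, 0–100 scale.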

[2] = test system: lambsquarters; assay: Test B pre-/postemergence herbicide test; format: in vivo, Chenopodium album
Procedure, shortened: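 Herbicidal effect was judged by eye on a 0–100 scale after plants stood 13 to 15 days in the greenhouse following pre- or postemergence treatment with surfactant-containing formulations.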

[3] = test system: barnyardgrass; assay: Test B flooded paddy test; format: in vivo, Echinochloa crus-galli; conditions: 1000 g ai/ha, visual rating, scale 0 to 100 (0 no effect, 100 complete control), 13 to 15 days
Procedure, shortened: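 Paddy species grown to the 2-leaf stage under flooding; blackgrass sprayed postemergence at 2–18 cm (1- to 4-leaf stage). Plants kept in a greenhouse for 13 to 15 days, then visually rated against controls on 0 (no effect) to 100 (complete control).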

[4] = test system: Surinam grass; assay: Test C pre-/postemergence herbicide test; format: in vivo, Urochloa decumbens; conditions: for Surinam Grass plant response rating: 500 g ai/ha
Procedure, shortened: (§1)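 Visual injury scores run from 0 (no effect) to 100 (complete control), assessed relative to untreated controls 12 to 14 days after treatment in the greenhouse. Chemicals were formulated in a non-phytotoxic solvent mixture with surfactant and applied to soil after planting or to emerged plants at the 1- to 4-leaf stage.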

[5] = test system: goosegrass; assay: Test C pre-/postemergence herbicide test; format: in vivo, Eleusine indica; conditions: for Goosegrass plant response rating: 500 g ai/ha
Procedure, shortened: as §1

[6] = test system: pigweed; assay: Test C pre-/postemergence herbicide test; format: in vivo, Amaranthus retroflexus; conditions: for Pigweed plant response rating: 500 g ai/ha
Procedure, shortened: as §1

[7] = test system: soybean; assay: Test C pre-/postemergence herbicide test; format: in vivo, Glycine max; conditions: for Soybean plant response rating: 500 g ai/ha
Procedure, shortened: as §1

[8] = test system: rice; assay: Test C flooded paddy test; format: in vivo, Oryza sativa; conditions: for Plant response rating, Rice: visual rating after 12 to 14 days
Procedure, shortened: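 Postemergence sprays applied to plants 2 to 18 cm tall (1- to 4-leaf stage); paddy species grown to 2-leaf stage under flooding. After 12 to 14 days in greenhouse, visual rating versus untreated controls on 0–100 scale (0 no effect, 100 complete control).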

[9] = Postemergence, 500 g ai/ha, 0 to 100 scale, 0 no effect, 100 complete control
[10] = Postemergence, 2000 g ai/ha, 0 to 100 scale, 0 no effect, 100 complete control
[11] = Preemergence, 500 g ai/ha, visual rating, 0 to 100 scale (0 no effect, 100 complete control)
[12] = 500 g ai/ha, visual rating 0-100, 0 no effect, 100 complete control, preemergence
[13] = postemergence, 125 g ai/ha, visual rating, scale 0 (no effect) to 100 (complete control)
[14] = preemergence, 125 g ai/ha, 0 to 100 scale, 0 is no effect, 100 is complete control
[15] = 125 g ai/ha, scale 0 (no effect) to 100 (complete control), visual, 12 to 14 days, preemergence
[16] = Postemergence, 250 g ai/ha, scale 0 to 100, 0 no effect, 100 complete control
[17] = Preemergence, scale 0 to 100, 0 no effect, 100 complete control
[18] = postemergence, 125 g ai/ha, scale 0 to 100
[19] = postemergence, 62 g ai/ha, scale 0 to 100
[20] = 62 g ai/ha, scale 0 to 100 (0 no effect, 100 complete control)
[21] = 250 g ai/ha, scale of 0 to 100, 0 is no effect, 100 is complete control
[22] = 500 g ai/ha, scale 0 to 100 (0 no effect, 100 complete control)
[23] = Preemergence, 2000 g ai/ha, 0 to 100 scale, 0 no effect, 100 complete control
[24] = Postemergence, 500 g ai/ha, visual rating after 13 to 15 days, scale 0 (no effect) to 100 (complete control)
[25] = 250 g ai/ha, scale 0 to 100 (0 no effect, 100 complete control), visual, 12 to 14 days, preemergence
[26] = 125 g ai/ha, scale of 0 to 100, 0 is no effect, 100 is complete control
[27] = 31 g ai/ha, preemergence, scale 0 to 100

## CCNC(=O)c1cccc(NC(=O)c2cc(C(C)(C)C)nn2CC)n1 [Compound 144]
[1]; [9]
  Foxtail, Giant plant response rating: 80
[1]; [10]
  Plant response rating, Foxtail, Giant: 100
[1]; [11]
  Foxtail, Giant plant response rating: 90
[1]; Preemergence, 2000 g ai/ha, visual rating, 0 to 100 scale (0 no effect, 100 complete control)
  Foxtail, Giant plant response rating: 100
[2]; [12]
  Plant response rating, Lambsquarters: 100
[2]; [13]
  Lambsquarters plant response rating: 90
[2]; postemergence, 500 g ai/ha, visual rating, scale 0 (no effect) to 100 (complete control)
  Lambsquarters plant response rating: 90
[2]; [14]
  Plant response rating, Lambsquarters: 100
[3]
  Barnyardgrass plant response rating: 80
[4]; 62 g ai/ha, preemergence
  Plant response rating (0 = no effect, 100 = complete control), Surinam Grass: 20
[4]; [15]
  Plant response rating, Surinam Grass: 40
[4]; Postemergence, scale 0 to 100
  Surinam Grass plant response rating: 40
[4]; [16]
  Plant response rating, Surinam Grass: 40
[4]; [17]
  Surinam Grass plant response rating: 70
[4]; [18]
  Plant response rating, Surinam Grass: 0
[4]; [19]
  Plant response rating, Surinam Grass: 0
[5]; 62 g ai/ha, preemergence
  Plant response rating (0 = no effect, 100 = complete control), Goosegrass: 30
[5]; [15]
  Plant response rating, Goosegrass: 60
[5]; Postemergence, scale 0 to 100
  Goosegrass plant response rating: 20
[5]; [16]
  Plant response rating, Goosegrass: 10
[5]; [17]
  Goosegrass plant response rating: 80
[5]; [18]
  Plant response rating, Goosegrass: 5
[5]; [19]
  Plant response rating, Goosegrass: 5
[6]; 62 g ai/ha, preemergence
  Plant response rating (0 = no effect, 100 = complete control), Pigweed: 90
[6]; [15]
  Plant response rating, Pigweed: 90
[6]; Postemergence, scale 0 to 100
  Pigweed plant response rating: 100
[6]; [16]
  Plant response rating, Pigweed: 100
[6]; [17]
  Pigweed plant response rating: 100
[6]; [18]
  Plant response rating, Pigweed: 100
[6]; [19]
  Plant response rating, Pigweed: 100
[7]; 62 g ai/ha, preemergence
  Plant response rating (0 = no effect, 100 = complete control), Soybean: 0
[7]; [15]
  Plant response rating, Soybean: 40
[7]; Postemergence, scale 0 to 100
  Soybean plant response rating: 90
[7]; [16]
  Plant response rating, Soybean: 90
[7]; [17]
  Soybean plant response rating: 80
[7]; [18]
  Plant response rating, Soybean: 85
[7]; [19]
  Plant response rating, Soybean: 70
[8]; [20]
  Rice plant response rating: 0
[8]; 125 g ai/ha, scale 0 to 100 (0 no effect, 100 complete control)
  Rice plant response rating: 20
[8]; [21]
  Rice plant response rating: 30
[8]; [22]
  Plant response rating, Rice: 30

## C=Cn1nc(C(C)(C)C)cc1C(=O)Nc1cccc(C(=O)N(CC)CC)c1 [Compound 34]
[1]; [9]
  Plant response rating, Foxtail, Giant: 30
[1]; [10]
  Plant response rating, Foxtail, Giant: 40
[1]; [11]
  Foxtail, Giant plant response rating: 40
[1]; [23]
  Foxtail, Giant plant response rating: 85
[2]; Postemergence, 125 g ai/ha, scale 0 (no effect) to 100 (complete control)
  Lambsquarters plant response rating: 80
[2]; [24]
  Plant response rating, Lambsquarters: 90
[2]; Preemergence, 500 g ai/ha, scale 0 to 100
  Lambsquarters plant response rating: 100
[2]; [14]
  Plant response rating, Lambsquarters: 80
[3]
  Barnyardgrass plant response rating: 80
[4]; 62 g ai/ha, preemergence
  Plant response rating (0 = no effect, 100 = complete control), Surinam Grass: 10
[4]; [25]
  Plant response rating, Surinam Grass: 60
[4]; Postemergence, scale 0 to 100
  Surinam Grass plant response rating: 70
[4]; [16]
  Plant response rating, Surinam Grass: 50
[4]; [17]
  Surinam Grass plant response rating: 70
[4]; [18]
  Plant response rating, Surinam Grass: 30
[4]; [19]
  Plant response rating, Surinam Grass: 20
[5]; 62 g ai/ha, preemergence
  Plant response rating (0 = no effect, 100 = complete control), Goosegrass: 20
[5]; 125 g ai/ha, scale 0-100, preemergence
  Plant response rating, Goosegrass: 80
[5]; [25]
  Plant response rating, Goosegrass: 100
[5]; Postemergence, scale 0 to 100
  Goosegrass plant response rating: 40
[5]; Postemergence, 125 g ai/ha, scale 0 to 100, 0 no effect, 100 complete control
  Plant response rating, Goosegrass: 40
[5]; [16]
  Plant response rating, Goosegrass: 40
[5]; [17]
  Goosegrass plant response rating: 100
[5]; [19]
  Plant response rating, Goosegrass: 30
[6]; 62 g ai/ha, preemergence
  Plant response rating (0 = no effect, 100 = complete control), Pigweed: 100
[6]; [25]
  Plant response rating, Pigweed: 100
[6]; Postemergence, scale 0 to 100
  Pigweed plant response rating: 100
[6]; [16]
  Plant response rating, Pigweed: 100
[6]; [17]
  Pigweed plant response rating: 100
[6]; [18]
  Plant response rating, Pigweed: 100
[6]; [19]
  Plant response rating, Pigweed: 100
[7]; 62 g ai/ha, preemergence
  Plant response rating (0 = no effect, 100 = complete control), Soybean: 0
[7]; [25]
  Plant response rating, Soybean: 0
[7]; Postemergence, scale 0 to 100
  Soybean plant response rating: 80
[7]; [16]
  Plant response rating, Soybean: 80
[7]; [17]
  Soybean plant response rating: 0
[7]; [18]
  Plant response rating, Soybean: 80
[7]; [19]
  Plant response rating, Soybean: 70
[8]; [20]
  Rice plant response rating: 0
[8]; [26]
  Rice plant response rating: 0
[8]; 250 g ai/ha, scale 0 to 100 (0 no effect, 100 complete control)
  Plant response rating, Rice: 50
[8]; [22]
  Plant response rating, Rice: 55

## CCOC(=O)c1cc(NC(=O)c2cc(C(C)(C)C)nn2CC)ccc1OCC [Compound 95]
[1]; [9]
  Foxtail, Giant plant response rating: 20
[1]; [10]
  Plant response rating, Foxtail, Giant: 50
[1]; [11]
  Foxtail, Giant plant response rating: 70
[1]; [23]
  Foxtail, Giant plant response rating: 90
[2]; [12]
  Plant response rating, Lambsquarters: 100
[2]; [24]
  Plant response rating, Lambsquarters: 100
[2]; [13]
  Lambsquarters plant response rating: 100
[2]; [14]
  Plant response rating, Lambsquarters: 100
[3]
  Barnyardgrass plant response rating: 50
[4]; [27]
  Plant response rating, Surinam Grass: 0
[4]; 62 g ai/ha, preemergence
  Plant response rating (0 = no effect, 100 = complete control), Surinam Grass: 0
[4]; [15]
  Plant response rating, Surinam Grass: 10
[5]; [27]
  Plant response rating, Goosegrass: 0
[5]; 62 g ai/ha, preemergence
  Plant response rating (0 = no effect, 100 = complete control), Goosegrass: 0
[5]; [15]
  Plant response rating, Goosegrass: 50
[6]; [27]
  Plant response rating, Pigweed: 100
[6]; 62 g ai/ha, preemergence
  Plant response rating (0 = no effect, 100 = complete control), Pigweed: 100
[6]; [15]
  Plant response rating, Pigweed: 100
[7]; [27]
  Plant response rating, Soybean: 0
[7]; 62 g ai/ha, preemergence
  Plant response rating (0 = no effect, 100 = complete control), Soybean: 0
[7]; [15]
  Plant response rating, Soybean: 0
[8]; [20]
  Rice plant response rating: 10
[8]; [26]
  Rice plant response rating: 10
[8]; [21]
  Rice plant response rating: 55
[8]; [22]
  Plant response rating, Rice: 65
